Measurements from US20130116206A1, “QUINOLINE DERIVATIVES USED AS PET IMAGING AGENTS” (IMPERIAL INNOVATIONS LIMITED, priority 2009, published 2013).
Where a name gives a salt, the structure may show the parent alone. Read-outs that look alike come from different tables or passages of the source.

How the values were obtained:
EGFR kinase = molecular target: T1, EGFR kinase (Homo sapiens, UniProt P00533); test: EGFR tyrosine kinase enzyme inhibition assay (cell free, DELFIA time resolved fluorescence); assay type: biochemical; settings: for IC50 / EGFR kinase activity IC50, range in words: cell free kinase assay
T1 construct: purchased Sigma E-3641
Description: Assessment of the EGFR tyrosine kinase activity of control quinoline 1 together with quinolines 10, 13, 14, 17, 18, 24 and 25 was carried out using a cell free kinase activity inhibition assay as detailed below. BPDQ (4-N-(3-bromophenyl)quinazoline-4,6,7-triamine), a quinazoline based EGFR inhibitor was also included in this assay as a further reference standard.
The inhibitory activity of quinolines 1, 10, 13, 14, 17, 18, 24 and 25 against EGFR kinase activity was measured by a time resolved fluorescence assay (DELFIA, Perkin-Elmer Life Sciences, Boston, Mass., USA). […] The reaction proceeded at rt for 1 h and was stopped by addition of 100 mM EDTA. The enzyme reaction solution was diluted and aliquots added to 96-well ELISA streptavidin plates with shaking for 1 h. The plates were washed and phosphorylated Tyrosine was detected with Eu-labeled antiphosphotyrosine antibody (50 ng/well; PT66; PerkinElmer). After washing and enhancement steps, the plates were assessed in a Victor^3 multi-label counter (PerkinElmer) using the EGFR Europium protocol.

[1] = molecular target: T2, EGFR autophosphorylation in A431 cells (Homo sapiens, UniProt P00533); test: Inhibition of EGFR autophosphorylation in A431 cells (Western blot p-EGFR/total EGFR); assay type: cell-based; settings: for IC50: 3 h drug incubation then washing with drug free medium, mean ± sem, n = 3
T2 construct: highly EGFR-expressing A431 cells; endogenous in cells; host or cells: A431 human epidermoid cancer cells (ATCC)
Description: The ability of the compounds to be transported across cell membranes and to inhibit EGFR autophosphorylation was examined in highly EGFR-expressing A431 cells.
The cells were maintained in DMEM (Sigma-Aldrich Company Ltd, Dorset, UK) supplemented with 10% fetal bovine serum (Lonza, UK), and 2 mM L-glutamine, 100 U/ml penicillin, 100 μg/mL streptomycin and 1 μg/mL fungizone (GIBCO) in 6 well plates incubated at 37° C. in a humidified incubator with 5% CO2. The experiments were designed to assess irreversibility of EGFR inhibition by the compounds. Cells in exponential growth were incubated with quinolines 1, 10, 13, 14, 17, 18, 24 and 25 at various concentrations for 3 h. EGF (100 ng/ml) was added to the cells during the last 15 min to induce p-EGFR. The medium was removed and replaced with fresh compound-free medium for 1 h. The last step was then repeated twice. The cells were then washed with cold PBS and lysed in RIPA buffer (Invitrogen Ltd, Paisley, UK) supplemented with protease and phosphatase inhibitor cocktails (Sigma-Aldrich Company Ltd, Dorset, UK). Lysates were clarified by centrifugation. The following antibodies were used: rabbit polyclonal antibody anti-p-EGFR (Cell signalling Technology, Denver, Mass.; 1:1000) and rabbit polyclonal antibody anti-EGFR (Santa Cruz Biotechnology, Santa Cruz, Calif.; 1:1000) and mouse monoclonal antibody anti-β-actin (Abcam, UK; 1:10000) as primary antibodies. The secondary antibodies were Goat anti Rabbit IgG HRP (Santa Cruz Biotechnology Santa Cruz, Calif.; 1:2000) and Goat anti Mouse IgG HRP (Autogen Bioclear, UK; 1:2000). The same procedure was used to assess EGFR and phospho-EGFR expression in HCT116 human colon carcinoma cells.

[2] = 25 μM ATP, read-out: IC50 (nM) EGFR kinase activity

T2 sequence (P00533 25-1210): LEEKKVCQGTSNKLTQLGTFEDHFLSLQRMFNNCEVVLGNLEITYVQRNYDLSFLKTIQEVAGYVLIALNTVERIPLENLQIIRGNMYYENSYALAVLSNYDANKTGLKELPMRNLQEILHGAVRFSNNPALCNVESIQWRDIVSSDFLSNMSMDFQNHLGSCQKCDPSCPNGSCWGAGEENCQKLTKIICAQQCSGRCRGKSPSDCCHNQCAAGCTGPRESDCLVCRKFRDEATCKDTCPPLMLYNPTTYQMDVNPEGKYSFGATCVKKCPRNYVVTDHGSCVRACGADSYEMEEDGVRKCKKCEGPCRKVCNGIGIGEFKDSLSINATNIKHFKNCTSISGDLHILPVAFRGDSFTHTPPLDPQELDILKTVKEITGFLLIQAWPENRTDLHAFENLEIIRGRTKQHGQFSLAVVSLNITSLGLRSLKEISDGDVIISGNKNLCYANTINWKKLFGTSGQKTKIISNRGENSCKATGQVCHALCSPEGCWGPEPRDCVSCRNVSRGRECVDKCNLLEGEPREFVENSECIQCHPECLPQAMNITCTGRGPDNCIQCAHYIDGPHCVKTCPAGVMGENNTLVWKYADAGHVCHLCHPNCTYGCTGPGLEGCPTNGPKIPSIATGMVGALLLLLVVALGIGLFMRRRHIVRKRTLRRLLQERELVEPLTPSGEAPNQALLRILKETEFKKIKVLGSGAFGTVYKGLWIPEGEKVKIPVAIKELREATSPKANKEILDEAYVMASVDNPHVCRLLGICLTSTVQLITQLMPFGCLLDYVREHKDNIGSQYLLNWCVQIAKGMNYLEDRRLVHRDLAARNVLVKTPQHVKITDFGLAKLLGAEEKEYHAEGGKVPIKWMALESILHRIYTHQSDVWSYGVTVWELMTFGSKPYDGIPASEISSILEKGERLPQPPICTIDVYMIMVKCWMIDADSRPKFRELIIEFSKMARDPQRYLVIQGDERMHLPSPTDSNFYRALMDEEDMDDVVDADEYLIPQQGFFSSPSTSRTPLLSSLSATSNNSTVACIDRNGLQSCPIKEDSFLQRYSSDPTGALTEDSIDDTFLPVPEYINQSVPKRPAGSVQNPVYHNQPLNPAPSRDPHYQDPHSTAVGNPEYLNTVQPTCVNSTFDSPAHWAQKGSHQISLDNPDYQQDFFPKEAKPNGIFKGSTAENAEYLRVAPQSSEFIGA
T1 sequence (P00533 25-1210): as above

| SMILES | IC50 (EGFR kinase; [2]) [nM] | Cellular EGFR autophosphorylation inhibition, IC50 in words [1] | IC50 [1] [nM] | EGFR kinase activity IC50, range in words (EGFR kinase) | EGFR kinase activity relative to quinoline 18 (EGFR kinase; 17 compared with 18) | IC50 (EGFR kinase; read-out: EGFR kinase activity IC50) [nM] |
| --- | --- | --- | --- | --- | --- | --- |
| Nc1cc2ncnc(Nc3cccc(Br)c3)c2cc1N [BPDQ, 4-N-(3-bromophenyl)quinazoline-4,6,7-triamine, reference compound] | 0.81 ± 0.01 |  |  |  |  |  |
| CCOc1cc2ncc(C#N)c(Nc3ccc(F)c(Cl)c3)c2cc1NC(=O)/C=C/CNC [compound 10, (E)-4-(Methylamino)-but-2-enoic acid [4-(3-chloro-4-fluorophenylamino)-3-cyano-7-ethoxy-quinoline-6-yl]amide] | 0.25 ± 0.06 | low nanomolar range | 5.35 ± 1.52 | sub-nanomolar |  |  |
| CCOc1cc2ncc(C#N)c(Nc3ccc(F)c(Cl)c3)c2cc1NC(=O)/C=C/CN(C)CCF [compound 13, (E)-4-[(2-Fluoroethyl)methylamino]-but-2-enoic acid [4-(3-chloro-4-fluorophenylamino)-3-cyano-7-ethoxyquinoline-6-yl]amide] | 0.8 ± 0.04 | low nanomolar range | 23 ± 12 | sub-nanomolar |  |  |
| CCOc1cc2ncc(C#N)c(Nc3ccc(F)c(Cl)c3)c2cc1NC(=O)/C=C/CN(C)Cc1ccc(F)cc1 [compound 14, (E)-4-[(4-Fluorobenzyl)methylamino]-but-2-enoic acid [4-(3-chloro-4-fluorophenylamino)-3-cyano-7-ethoxyquinoline-6-yl]amide] | 0.57 ± 0.12 | low nanomolar range | 16.5 ± 8.38 | sub-nanomolar |  |  |
| CCOc1cc2ncc(C#N)c(Nc3ccc(F)c(Cl)c3)c2cc1NC(=O)/C=C/CNCc1cn(CCF)nn1 [compound 17, (E)-4-{[1-(2-Fluoro-ethyl)-1H-[1,2,3]triazol-4-ylmethyl]-amino}-but-2-enoic acid [4-(3-chloro-4-fluoro-phenylamino)-3-cyano-7-ethoxy-quinolin-6-yl]-amide hydrochloride] | 1.81 ± 0.18 | low nanomolar range | 22 ± 9.06 |  | two-fold more active than 18 |  |
| CNC/C=C/C(=O)Nc1cc2c(Nc3ccc(F)c(Cl)c3)c(C#N)cnc2cc1OCCF.Cl [compound 24, (E)-4-Methylamino-but-2-enoic acid [4-(3-chloro-4-fluorophenylamino)-3-cyano-7-(2-fluoroethoxy)-quinolin-6-yl]-amide hydrochloride] | 0.29 ± 0.03 | low nanomolar range | 8.12 ± 2.03 |  |  |  |
| C#CCNC/C=C/C(=O)Nc1cc2c(Nc3ccc(F)c(Cl)c3)c(C#N)cnc2cc1OCC.Cl [compound 25, (E)-4-Prop-2-ynylaminobut-2-enoic acid [4-(3-chloro-4-fluorophenylamino)-3-cyano-7-ethoxy-quinolin-6-yl]-amide hydrochloride] |  | low nanomolar range | 60.2 ± 17.1 |  |  | 0.03 |
